# Experimental data published in patent US12377110B2, “Fospropofol methods and compositions” (Epalex Corporation, priority 2019, dated 2025).
# Several values for one entry are separate records, joined by “and”; a condition that tells them apart may be missing. Equal entries are not always repeated. Where two headings read alike, the source gives them in different places.
# Tests used:
# [1] = Study A17: PK of fospropofol and propofol after single oral dose of fospropofol disodium 800 mg in subjects with migraine; conditions: for AUC / Cmax / Tmax: female, human, po, 800 mg; for Cmax: Fospropofol Cmax; for Tmax: Fospropofol Tmax
# Protocol: The study is planned to complete approximately 85 subjects. • Enrolled subjects will be asked to come to the study site for treatment when they experience a qualifying migraine headache. Dosing must occur within 4 hours after onset of the migraine symptoms. If treatment at the study site is not feasible or practicable within 4 hours after onset of migraine symptoms, subjects should use their usual medication for that headache and attempt to visit the clinic for treatment as soon as possible (within 4 hours) after onset of their next migraine headache. Dosing must occur within 60 days after enrollment (see Post-enrollment Period below). • At clinic check-in for treatment, study personnel will verify eligibility for closing regarding the criteria for a qualifying headache and adherence to post-enrollment study restrictions (see Eligibility for Dosing below). • Treatment will consist of a single oral dose of fospropofol disodium. […] Because the prevalence of migraine headaches is higher in women than in men, efforts will be made to enroll at least 50% women. • Subjects must meet the general inclusion and exclusion criteria listed below (Inclusion Criteria and Exclusion Criteria) at screening to be enrolled in the study. To be eligible for fospropofol disodium treatment after onset of a migraine headache, enrolled subjects must meet criteria specific to the presenting headache at clinic check-in (see Qualifying Headache below) and adhere to study restrictions specific to the period between enrollment and clinic check-in (see Post-enrollment Restrictions below). • Inclusion Criteria Subjects must meet all of the following criteria at screening to be enrolled in the study: • 1. Written informed consent approved by the Institutional Review Board (IRB) given before any study-related procedures are performed • 2. […] Complete abstinence alone can be used as a method of contraception. • 6. […] Able to comprehend the nature of the study, capable of giving written informed consent, and able to communicate effectively with clinic staff (as assessed by the investigator) • 8. Available to volunteer for the entire study duration and willing to adhere to all protocol requirements, including the post-enrollment restrictions (see Post-enrollment Restrictions below) • 9. Agrees not to post any information related to the study on any website or social media site (e.g., Facebook, Twitter, LinkedIn, Google+, etc.) until the entire trial has been completed • 10. Willing to forgo rescue medicine for at least 2 hours after initiation of treatment with study drug (see In-Clinic Rescue Medicine) • Exclusion Criteria Subjects to whom any of the following criteria apply at screening will be excluded: • 1. History of hemiplegic migraine (at any time in the past). • 2. History of headaches of any type occurring on ≥15 days/month during any of the 3 months prior to screening. • 3.
# [2] = Study A16 Part 1: PK of single ascending oral doses of fospropofol disodium (200 to 2000 mg), fasted healthy adults; assay type: in vivo, human; conditions: for AUC / Cmax / Tmax / AUC(0-t) / AUC(0-inf) / half-life: both sexes, human, plasma; for Cmax: read-out: Fospropofol Cmax; for AUC(0-t): read-out: Fospropofol AUC0-T; for AUC(0-inf): read-out: Fospropofol AUC0-∞; for half-life: read-out: Fospropofol t1/2 (converted)
# Protocol: Part 1 of Study A16 was a double-blind, randomized, placebo-controlled study to investigate the safety-tolerability and PK of oral administration of single ascending doses of fospropofol disodium to healthy adult male and female volunteers.
# Subjects were healthy adults (age 18-55 years inclusive, BMI 18-29.9 kg/m^2). Separate cohorts of 12 subjects each were randomized to receive fospropofol disodium at doses of 200, 400, 800, 1000, 1200, 1600, or 2000 mg (n=10 per cohort) or matching placebo (n=2 per cohort).
# Subjects were admitted to the clinical unit for an overnight fast (Day −1), administered study drug on Day 1, and remained in the clinical unit until Day 2.
# Fospropofol disodium was formulated as powder in an HPMC capsule, each capsule containing 200 mg of fospropofol disodium (weight adjusted for water content). Placebo was administered as an appropriate number of matching capsules.
# Based on PK results from the early cohorts, sampling times were optimized beginning with Cohort 3 (800 mg) to preclose, 5, 10, 15, 20, 25, 30, 37, and 45, minutes and 1, 2, 4, 6, and 9 hours after closing.
# [3] = A17 vs. A16 800 mg Cohort, excluding subject 308
# [4] = Study A17 vs. A16 800 mg Cohort, excluding subject 308
# [5] = plasma, Mean, Mean without Subject 6008 (below limit of quantitation at all time points), Fospropofol Disodium 800 mg oral
# [6] = plasma, Mean, N = 12 migraine subjects, Fospropofol Disodium 800 mg oral
# [7] = individual migraine subjects, Fospropofol Disodium 800 mg oral
# [8] = plasma, individual migraine subjects (N = 12), Fospropofol Disodium 800 mg oral
# [9] = oral fospropofol disodium 200 mg, mean
# [10] = oral fospropofol disodium 400 mg, mean
# [11] = oral fospropofol disodium 800 mg, mean
# [12] = oral fospropofol disodium 1000 mg, mean
smiles,measurement,setting,value
"CC(C)c1cccc(C(C)C)c1OCOP(=O)(O)O [fospropofol, (2,6-diisopropylphenoxy)methyl dihydrogen phosphate]","Ratio of mean fospropofol Auc1, migraine subjects (all female) to female healthy volunteers",[1]; [3],110%
same,"Ratio of mean fospropofol Auc2, migraine subjects (all female) to female healthy volunteers",[1]; [3],116%
same,"Ratio of mean fospropofol Auc4, migraine subjects (all female) to female healthy volunteers",[1]; [3],120%
same,"Ratio of mean fospropofol Cmax, migraine subjects (all female) to female healthy volunteers",[1]; [3],94%
same,"Ratio of mean fospropofol Tmax, migraine subjects (all female) to female healthy volunteers",[1]; [3],89%
same,"Ratio of mean fospropofol Auc1, migraine subjects to healthy volunteers",[1]; [4],121%
same,"Ratio of mean fospropofol Auc2, migraine subjects to healthy volunteers",[1]; [4],130%
same,"Ratio of mean fospropofol Auc4, migraine subjects to healthy volunteers",[1]; [4],135%
same,"Ratio of mean fospropofol Cmax, migraine subjects to healthy volunteers",[1]; [4],105%
same,"Ratio of mean fospropofol Tmax, migraine subjects to healthy volunteers",[1]; [4],98%
same,AUC,"[1]; plasma, Fospropofol AUC1, Mean, Mean without Subject 6008 (below limit of quantitation at all time points), Fospropofol Disodium 800 mg oral",3360 ng·h/mL
same,AUC,"[1]; plasma, Fospropofol AUC1, Mean, Mean, N = 12 migraine subjects, Fospropofol Disodium 800 mg oral",3080 ng·h/mL
same,AUC,"[1]; plasma, Fospropofol AUC2, Mean, Mean without Subject 6008 (below limit of quantitation at all time points), Fospropofol Disodium 800 mg oral",4310 ng·h/mL
same,AUC,"[1]; plasma, Fospropofol AUC2, Mean, Mean, N = 12 migraine subjects, Fospropofol Disodium 800 mg oral",3950 ng·h/mL
same,AUC,"[1]; plasma, Fospropofol AUC4, Mean, Mean without Subject 6008 (below limit of quantitation at all time points), Fospropofol Disodium 800 mg oral",4650 ng·h/mL
same,AUC,"[1]; plasma, Fospropofol AUC4, Mean, Mean, N = 12 migraine subjects, Fospropofol Disodium 800 mg oral",4260 ng·h/mL
same,Cmax,[1]; [5],6320 ng/mL
same,Cmax,[1]; [6],5790 ng/mL
same,Tmax,[1]; [5],19.8 min
same,Tmax,[1]; [6],19.8 min
same,Fospropofol AUC4,[1]; [7],3837.04 ng·h/mL and 1469.88 ng·h/mL and 4303.32 ng·h/mL and 4814.33 ng·h/mL and 6942.73 ng·h/mL and 1702.48 ng·h/mL and 8572.36 ng·h/mL and 1248.45 ng·h/mL and 3152.5 ng·h/mL and 7130.22 ng·h/mL and 7986.57 ng·h/mL
same,Fospropofol Cmax,[1]; [7],5163.62 ng/mL and 3285.03 ng/mL and 5036.79 ng/mL and 7527.26 ng/mL and 10597.13 ng/mL and 2219.93 ng/mL and 8307.86 ng/mL and 1419.1 ng/mL and 4507.39 ng/mL and 11463.93 ng/mL and 10001.18 ng/mL
same,Fospropofol Tmax,[1]; [7],10 min and 40 min
same,Fospropofol AUC 1 hr,[1]; [8],723.61 ng·h/mL and 2418.57 ng·h/mL and 5268.76 ng·h/mL and 6456.6 ng·h/mL and 2684.78 ng·h/mL and 1315.43 ng·h/mL and 3262.09 ng·h/mL and 3522.27 ng·h/mL and 5673.87 ng·h/mL and 1193.95 ng·h/mL and 4461.52 ng·h/mL
same,Fospropofol AUC 2 hr,[1]; [8],1007.69 ng·h/mL and 3045.22 ng·h/mL and 6730.95 ng·h/mL and 7756.33 ng·h/mL and 3666.13 ng·h/mL and 1421.1 ng·h/mL and 4174.88 ng·h/mL and 4386.97 ng·h/mL and 6702.97 ng·h/mL and 1610.51 ng·h/mL and 6945.81 ng·h/mL
same,"Dose proportionality of fospropofol AUC0-2h, AUC0-T, AUC0-∞, and Cmax (power model)",[2]; 200 mg to 2000 mg,close proportional
same,AUC,"[2]; oral, 800 mg, subjects 301-312 (800 mg cohort), Mean, read-out: Fospropofol AUC1",2780 ng·h/mL
same,AUC,"[2]; oral, 800 mg, subjects 301-312 (800 mg cohort), Mean, read-out: Fospropofol AUC2",3330 ng·h/mL
same,AUC,"[2]; oral, 800 mg, subjects 301-312 (800 mg cohort), Mean, read-out: Fospropofol AUC4",3440 ng·h/mL
same,Cmax,"[2]; oral, 800 mg, subjects 301-312 (800 mg cohort), Mean",6040 ng/mL
same,Tmax,"[2]; oral, 800 mg, subjects 301-312 (800 mg cohort), Mean, read-out: Fospropofol Tmax",20.4 min
same,Tmax,"[2]; oral, 800 mg, subjects 301-312 (800 mg cohort), individual subjects (Subject No. in c0), read-out: Fospropofol Tmax",30 min
same,Tmax,"[2]; oral, 200 to 2000 mg cohorts, read-out: Fospropofol median Tmax (converted)",~20 min
same,Cmax,"[2]; po, 200 mg, oral fospropofol disodium 200 mg, mean",1980 ng/mL
same,Tmax,"[2]; po, 200 mg, oral fospropofol disodium 200 mg, median, read-out: Fospropofol Tmax",19.8 min
same,Cmax,"[2]; po, 400 mg, oral fospropofol disodium 400 mg, mean",4460 ng/mL
same,Tmax,"[2]; po, 400 mg, oral fospropofol disodium 400 mg, median, read-out: Fospropofol Tmax",19.8 min
same,Cmax,"[2]; po, 800 mg, oral fospropofol disodium 800 mg, mean",6040 ng/mL
same,Tmax,"[2]; po, 800 mg, oral fospropofol disodium 800 mg, median, read-out: Fospropofol Tmax",19.8 min
same,Cmax,"[2]; po, 1000 mg, oral fospropofol disodium 1000 mg, mean",8240 ng/mL
same,Tmax,"[2]; po, 1000 mg, oral fospropofol disodium 1000 mg, median, read-out: Fospropofol Tmax",19.8 min
same,Cmax,"[2]; po, 1200 mg, oral fospropofol disodium 1200 mg, Fasted (Cohort 5), n = 10, mean",7110 ng/mL
same,Tmax,"[2]; po, 1200 mg, oral fospropofol disodium 1200 mg, Fasted (Cohort 5), n = 10, median, read-out: Fospropofol Tmax",19.8 min
same,Cmax,"[2]; po, 1200 mg, oral fospropofol disodium 1200 mg, mean",7110 ng/mL
same,Tmax,"[2]; po, 1200 mg, oral fospropofol disodium 1200 mg, median, read-out: Fospropofol Tmax",19.8 min
same,Cmax,"[2]; po, 1600 mg, oral fospropofol disodium 1600 mg, mean",10200 ng/mL
same,Tmax,"[2]; po, 1600 mg, oral fospropofol disodium 1600 mg, median, read-out: Fospropofol Tmax",19.8 min
same,Cmax,"[2]; po, 2000 mg, oral fospropofol disodium 2000 mg, mean",17100 ng/mL
same,Tmax,"[2]; po, 2000 mg, oral fospropofol disodium 2000 mg, median, read-out: Fospropofol Tmax",22.8 min
same,AUC(0-t),[2]; [9],856 ng·h/mL
same,AUC(0-inf),[2]; [9],882 ng·h/mL
same,half-life,[2]; [9],12.6 min
same,AUC(0-t),[2]; [10],2200 ng·h/mL
same,AUC(0-inf),[2]; [10],2230 ng·h/mL
same,half-life,[2]; [10],14.4 min
same,AUC(0-t),[2]; [11],3290 ng·h/mL
same,AUC(0-inf),[2]; [11],3360 ng·h/mL
same,half-life,[2]; [11],16.2 min
same,AUC(0-t),[2]; [12],4700 ng·h/mL
same,AUC(0-inf),[2]; [12],4840 ng·h/mL
